Reference: patent publication US10214738B2, “Production of high purity chondroitinase ABC” (priority 2017, dated 2019)
“Also recorded” adds a separate entry of the source.

Assays:
[1] = target: T1, chondroitinase ABC (ChABC) (Proteus vulgaris, UniProt P59807, L125P); assay: relative enzyme inhibition assay of ChABC by selected polysaccharide (chondroitin sulfate C substrate, absorbance at 232 nm); assay type: biochemical; details: for Activity (apparent ChABC activity in presence of selected polysaccharide) / % rA (percentage of residual activity): 0.2% chondroitin sulfate C, 0.2% selected polysaccharide, 50 mM pH8 Tris HCl, 37° C., 20 min; for Activity (apparent ChABC activity in presence of selected polysaccharide): reference without polysaccharide 121 U/L; for % rA (percentage of residual activity): relative to assay without polysaccharide; for effect on ChABC enzyme activity (in words): equal amount of substrate (chondroitin sulfate C) and polysaccharide
T1 sequence (P59807 25-1021 L125P): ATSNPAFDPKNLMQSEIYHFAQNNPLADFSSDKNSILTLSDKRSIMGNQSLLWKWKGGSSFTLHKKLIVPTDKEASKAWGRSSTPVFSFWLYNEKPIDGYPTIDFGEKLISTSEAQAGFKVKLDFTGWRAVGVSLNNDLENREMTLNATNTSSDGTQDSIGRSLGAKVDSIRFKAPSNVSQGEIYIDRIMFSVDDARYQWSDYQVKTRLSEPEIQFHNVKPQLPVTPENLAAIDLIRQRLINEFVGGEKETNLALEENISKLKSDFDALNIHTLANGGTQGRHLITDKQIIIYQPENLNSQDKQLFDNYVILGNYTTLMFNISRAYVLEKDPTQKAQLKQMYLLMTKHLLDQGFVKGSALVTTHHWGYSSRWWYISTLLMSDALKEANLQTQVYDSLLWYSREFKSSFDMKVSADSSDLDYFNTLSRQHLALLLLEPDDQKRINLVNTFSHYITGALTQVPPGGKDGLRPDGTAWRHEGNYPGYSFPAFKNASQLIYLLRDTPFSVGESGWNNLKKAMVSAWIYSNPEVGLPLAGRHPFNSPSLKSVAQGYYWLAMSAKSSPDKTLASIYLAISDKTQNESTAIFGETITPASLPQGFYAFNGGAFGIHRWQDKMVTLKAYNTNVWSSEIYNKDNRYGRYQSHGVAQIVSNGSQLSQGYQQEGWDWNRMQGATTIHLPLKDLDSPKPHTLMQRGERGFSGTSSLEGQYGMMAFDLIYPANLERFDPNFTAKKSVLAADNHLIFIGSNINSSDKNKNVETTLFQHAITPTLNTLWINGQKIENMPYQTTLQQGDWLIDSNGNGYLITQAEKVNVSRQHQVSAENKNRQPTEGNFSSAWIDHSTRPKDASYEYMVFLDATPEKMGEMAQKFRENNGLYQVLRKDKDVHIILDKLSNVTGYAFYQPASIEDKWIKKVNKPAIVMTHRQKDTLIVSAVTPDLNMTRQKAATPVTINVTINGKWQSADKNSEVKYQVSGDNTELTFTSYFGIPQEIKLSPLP
Text: There are several existing methods for quantitative study of protein-small molecule interactions such as differential scanning calorimetry, quartz crystal microbalance, fluorescence anisotropy, and the like. However, these methods require complex equipment, are expensive and time consuming, requiring protein immobilization or protein labeling. In order to save time and reduce costs, semi-quantitative assessment methods can be applied, such as enzyme inhibition assays. In the present invention, the relative binding affinity is evaluated by monitoring the inhibition of ChABC by the selected polysaccharide. The stronger the observed inhibitory effect, the higher the affinity between the ChABC and the polysaccharide. A more detailed experimental setup is shown in Example 1. […] Thus, heparin was identified as the most suitable ligand among the selected screened polysaccharides for constructing the affinity column.
In the present invention, it is necessary to identify molecules that have a similar structure to the substrate of ChABC but are inert to enzymatic degradation. In order to test polysaccharides that could actually bind to the active site of ChABC, a relative enzyme inhibition assay was conducted on the selected polysaccharide:
490 μL of the substrate solution was incubated at 37° C. for at least 15 minutes containing 0.2% chondroitin sulfate C, 0.2% selected polysaccharide and 50 mM pH8 Tris HCl buffer. 10 μL of ChABC with activity of about 100 U/L was incubated at 37° C. for at least 3 minutes. After incubation, the two solutions were gently mixed. The mixture was then incubated at 37° C. for 20 minutes to perform enzymatic degradation of chondroitin sulfate. After 20 minutes, the reaction was terminated by inactivating ChABC by heating at 100° C. for 2 minutes. In addition to inactivating the mixture immediately without incubation for 20 minutes, a blank control was performed in the same manner. The absorbance of the heat inactivated solution at 232 nm was then measured and the apparent activity was calculated as shown in Equation 1. The assay in the absence of selected polysaccharide was also conducted in the same manner as a reference.
[formula] • where • Abs=Difference in absorbance • =OD232nm in sample tubes−OD232nm in blank tubes • E=Millimolar extinction coefficient of unsaturated disaccharides from Chondroitin Sulfate C=5.5 • t=Reaction time=20 min • Vt=Total volume of the assay=0.5 mL • Vs=Volume of enzyme used=0.01 mL • DF=Dilution factor • 1000=Convert U/mL to U/L
[formula] • where • % rA=percentage of residual activity • A(poly)=the activity presence of selected polysaccharide • A(ref)=the […] of the assay without the presence of selected polysaccharide

[2] = target: T1, chondroitinase ABC (ChABC); assay: incubation of ChABC alone with heparin (change in absorbance, enzymatic degradation); assay type: biochemical; details: ChABC incubated alone with heparin; no change in absorbance
Text: Therefore, immobilization of heparin as a ligand for affinity purification of ChABC is the most suitable choice among the selected polysaccharide derivatives.

Alginic acid was tested, and the “Activity (apparent ChABC activity in presence of selected polysaccharide)” value [1] was 119 U/L, the “% rA (percentage of residual activity)” value [1] was 98% and the “effect on ChABC enzyme activity (in words)” value (“effect” for short) [1] was “no significant effect on enzyme activity”.
heparin was tested, and the “Activity (apparent ChABC activity in presence of selected polysaccharide)” value [1] was 5.1 U/L, the “% rA (percentage of residual activity)” value [1] was 4.2% and the “effect” value [1] was “almost completely inhibited ChABC activity; also recorded: strongest inhibitory effect on ChABC”. The “susceptibility to enzymatic degradation by ChABC” value [2] was “not subject to the enzymatic degradation activity of ChABC”.
polygalacturonic acid was tested, and the “Activity (apparent ChABC activity in presence of selected polysaccharide)” value [1] was 117 U/L, the “% rA (percentage of residual activity)” value [1] was 97% and the “effect” value [1] was “no significant effect on enzyme activity”.
